Values after ≈ are worked out from the molar mass of the structure shown.

Assay [1] relates to P388 mouse leukemia cells. Nature of the assay: Cytotoxicity against P388 mouse leukemia cells (crystal violet staining). The format is cell-based. The settings on record: 72 h, 3 days incubation, cell number reduced to 50% of control. How it is done:
P388 mouse leukemia cells were plated into 96-well plate at the density of 2×10^3 cells/well. The compounds of the invention were dissolved in purified water or dimethylsulfoxide and the solution was diluted with medium to various concentrations and added to respective wells. After the plate was incubated for 3 days, the cultures were fixed with glutaraldehyde and the number of survived cells were determined by crystal violet staining method.

The test system of assay [2] is P388 mouse leukemia cells. The assay is described as follows: Antineoplastic action: increase in life span of CDF1 mice bearing P388 mouse leukemia cells. The format is in vivo. The settings on record: P388, ip.
Protocol: P388 mouse leukemia cells (1×10^6 cells/mouse) were injected intraperitoneally into CDF1 mouse. Each of the compound of the invention dissolved in 5% glucose or 5% dimethylsulfoxide at each of predetermined concentration was injected intraperitoneally on 1 and 5 days after injection. The antitumor activity thereof was evaluated as percentage of increase in life span (ILS %) compared to the mean survival of the untreated control group.
The mark [3] stands for this setting: i.p. on 1 and 5 days after tumor injection, CDF1 mouse, vs untreated control.

By IC50 is commonly meant the point on the concentration scale where inhibition reaches its midpoint. A lower IC50 goes with higher potency. As usually defined, the ILS is how much longer treated animals lived than controls. `O=C1c2ccccc2-c2c1c(NCCN1CCCC1)nc1cc(O)ccc21` [Compound 26-a]: the IC50 in assay [1] is 0.42 ng/mL (≈ 1.17 nM). The same compound showed an increase in life span (ILS) at 30 mg/kg/day in assay [2] (setting [3]) of 70.6%.

Take `CN(C)CCOc1nc2cc(O)ccc2c2c1C(=O)c1ccccc1-2` [Compound 62]: the IC50 in assay [1] worked out at 0.3 ng/mL (≈ 0.897 nM).

In turn, `CCN(CC)CCNc1nc2cc(O)ccc2c2c1C(=O)c1ccccc1-2` [Compound 7] had an IC50 in assay [1] of 0.65 ng/mL (≈ 1.8 nM). The compound further showed an ILS at 44 mg/kg/day in assay [2] (setting [3]) of 223%.

In assay [1], `CN1CCN(c2nc3cc(O)ccc3c3c2C(=O)c2ccccc2-3)CC1` [Compound 9-a] returned an IC50 of 7.4 ng/mL (≈ 21.4 nM). This compound displayed an ILS at 150 mg/kg/day in assay [2] (setting [3]) of 60%.

`CN(C)CCNc1nc2cc(N)ccc2c2c1C(=O)c1ccccc1-2` [Compound 41-a] showed a 50% inhibitory concentration (IC50) in assay [1] of 11 ng/mL (≈ 33.1 nM). Besides, the ILS at 67 mg/kg/day in assay [2] (setting [3]) amounted to 306%.

`CN(C)CCNc1nc2ccccc2c2c1C(=O)c1ccc(O)cc1-2` [Compound 49-a] returned an IC50 in assay [1] of 2 ng/mL (≈ 6 nM). In addition, the ILS at 150 mg/kg/day in assay [2] (setting [3]) was 66.7%.

For `CN(C)CCN(C)c1nc2c(c3ccccc13)-c1ccccc1C2=O` [Compound 76], in assay [1], inhibition was half-maximal at 160 ng/mL (≈ 483 nM) (IC50). In addition, in assay [2] (setting [3]), the ILS at 100 mg/kg/day is 75%.

`CN(C)CCOc1nc2ccccc2c2c1C(=O)c1cc3c(cc1-2)OCO3` [Compound 64-a] showed an IC50 in assay [1] of 0.87 ng/mL (≈ 2.4 nM). In addition, in assay [2] (setting [3]), the ILS at 67 mg/kg/day was found to be 153%.

With `CN(C)CCNc1nc2ccc(O)cc2c2c1C(=O)c1ccccc1-2` [Compound 31-a], the midpoint of inhibition in assay [1], the IC50, lay at 6 ng/mL (≈ 18 nM). The compound also registered an ILS at 30 mg/kg/day in assay [2] (setting [3]) of 48.5%.

In assay [1], `CN(C)CCNc1nc2cc(F)ccc2c2c1C(=O)c1ccccc1-2.Cl.Cl` [Compound 2, 6-(((dimethylamino)ethyl)amino)-3-fluoro-7H-indeno[2,1-c]quinoline-7-on dihydrochloride] had an IC50 of 4.8 ng/mL. In addition, the ILS at 67 mg/kg/day in assay [2] (setting [3]) was 85%.

Turning to `CN(C)CCNc1nc2cc(O)ccc2c2c1C(=O)c1cc(Cl)ccc1-2` [Compound 23-a], half-maximal inhibition in assay [1] (IC50) required 0.11 ng/mL (≈ 0.299 nM).

For `CN(C)CCNc1nc2cc(O)ccc2c2c1C(=O)c1ccccc1-2` [Compound 3-a], the ILS at 10 mg/kg/day in assay [2] (Mus musculus, read-out: Increase in life span (ILS %)) worked out at 94.4%.

In turn, `CN(C)CCNc1nc2cc3c(cc2c2c1C(=O)c1ccccc1-2)OCO3` [Compound 73-a] yielded an IC50 in assay [1] of 13 ng/mL (≈ 36 nM). Besides, the ILS at 44 mg/kg/day in assay [2] (setting [3]) came out at 129%.

For the compound `CN1CCN(c2nc3c(c4ccccc24)-c2ccccc2C3=O)CC1` [Compound 75, 6-(1-(4-methylpiperazinyl))-7H-indeno[2,1-c]isoquinoline-7-on], the IC50 in assay [1] was determined as 450 ng/mL (≈ 1370 nM).

For the compound `O=C1c2ccccc2-c2c1c(NCCNCCO)nc1cc(O)ccc21` [Compound 55], in assay [1], the IC50 stood at 0.95 ng/mL (≈ 2.72 nM).

`CN(C)CCNc1nc2cc(O)ccc2c2c1C(=O)c1cc(O)ccc1-2` [Compound 50-a]: the IC50 in assay [1] amounted to 1.1 ng/mL (≈ 3.15 nM). Moreover, in assay [2] (dose 20 mg/kg/day, i.p. on 1 and 5 days after tumor injection, CDF1 mouse, vs untreated control), the ILS at 20 mg/kg/day worked out at 45.2%.

Take `CN(C)CCNc1nc2ccccc2c2c1C(=O)c1cc(O)ccc1-2` [Compound 47-a]: inhibition in assay [1] was half-maximal at 1.3 ng/mL (≈ 3.9 nM) (IC50). Moreover, the ILS at 44 mg/kg/day in assay [2] (setting [3]) came to 130%.

In assay [1], `CN(C)CCNc1nc2ccccc2c2c1C(=O)c1ccccc1-2` [Compound 28-a] gave an IC50 of 2 ng/mL (≈ 6.3 nM). Also, the ILS at 67 mg/kg/day in assay [2] (setting [3]) is 180%.

For the compound `COc1ccc2c3c(c(NCCN(C)C)nc2c1)C(=O)c1ccccc1-3` [Compound 1-a], the midpoint of inhibition in assay [1], the IC50, lay at 24 ng/mL (≈ 69.1 nM). In assay [2] (setting [3]), the ILS at 100 mg/kg/day was found to be 68%.

In turn, `CNCCNc1nc2cc(O)ccc2c2c1C(=O)c1ccccc1-2.Cl.Cl.Cl` [Compound 60, 6-(((methylamino)ethyl)amino)-3-hydroxy-7H-indeno[2,1-c]quinoline-7-on-trihydrochloride] returned an IC50 in assay [1] of 0.66 ng/mL.

With `CN(C)CCNc1nc2ccccc2c2c1C(=O)c1cc3c(cc1-2)OCO3` [Compound 66-a], the IC50 in assay [1] turned out to be 1.2 ng/mL (≈ 3.32 nM). This compound registered an ILS at 44 mg/kg/day in assay [2] (setting [3]) of 141%.

Source of the values: patent publication US5733918A, “Condensed-Indan derivatives and pharmaceutically acceptable salts thereof” (Taiho Pharmaceutical Co., Ltd., priority 1994, dated 1998).
